Source: ChEMBL document CHEMBL2146406, “DNA-binding study of anthraquinone derivatives using chemometrics methods” (Eur J Med Chem, 2011)
Calls of active or inactive are those of the source. The rule behind the calls is not given here.

Tests used:
Format in all cases: nucleic-acid assay
Conditions in all cases: Bos taurus
Nucleic Acid [1] = assay: Binding affinity to calf thymus DNA in Brittone-Robinson buffer at 50 uM by UV-vis spectroscopy in presence of native DNA
Nucleic Acid [2] = assay: Binding affinity to calf thymus DNA assessed as hydrogen bonding
Nucleic Acid [3] = assay: Binding affinity to calf thymus DNA in Brittone-Robinson buffer at 50 uM by UV-vis spectroscopy in presence of denatured DNA
Nucleic Acid [4] = assay: Binding affinity to calf thymus DNA in Brittone-Robinson buffer at 50 uM at pH 7 in presence of NaCl by UV-vis spectroscopy
Nucleic Acid [5] = assay: Binding affinity to calf thymus DNA at DNA/compound ratio 0.1 to 2 at pH 7 by measuring DNA viscosity
Nucleic Acid [6] = assay: Ratio of danthron Kb to quinizarin Kb for calf thymus DNA
Nucleic Acid [7] = assay: Binding affinity to calf thymus DNA assessed as partial intercalation
Nucleic Acid [8] = assay: Binding affinity to calf thymus DNA in Brittone-Robinson buffer at 50 uM at pH 3 by UV-vis spectroscopy
Nucleic Acid [9] = assay: Binding affinity to calf thymus DNA at 50 uM by circular dichroism spectra
Nucleic Acid [10] = assay: Binding affinity to calf thymus DNA in Brittone-Robinson buffer at 50 uM at pH 7 by UV-vis spectroscopy

Row | Activity (Nucleic Acid [1]) | Kb (Nucleic Acid [2]) [×10⁴ /M] | Activity (Nucleic Acid [3]) | Activity (Nucleic Acid [4]) | Activity (Nucleic Acid [5]) | Ratio (Nucleic Acid [6]) | Kb (Nucleic Acid [7]) | Activity (Nucleic Acid [8]) | Activity (Nucleic Acid [9]) | Activity (Nucleic Acid [10]) | SMILES
1 | Active | 1.66 | Active | Active | Active | 5 | 3.2 ×10⁷ /M | inactive | Active | Active | O=C1c2ccccc2C(=O)c2c(O)ccc(O)c21
2 | Active | 3.6 | Active | Active | Active |  | 7.2 ×10⁶ /M | inactive | Active | Active | O=C1c2cccc(O)c2C(=O)c2c(O)cccc21
